Results taken from the supplement of paper PMC10307832.

Legend:
Test in all cases: relative viability (nuclei count vs DMSO), 5 days (fraction); higher = more cells survive
NCI-H647 = system: NCI-H647
How it was run: (§1)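 After 5 days of treatment, lung cancer cells in 1536-well plates were fixed and stained in a single step (final 0.05% Triton X-100, 1% formaldehyde, 1 ug/ml Hoechst) and their nuclei counted on 4× images. Treatment had been applied by pin tool the day after seeding as one drug alone or as a fixed anchor-drug dose with five library-drug doses (not always all listed) in √10 steps. Relative viability is the nuclei count of treated wells divided by that of vehicle wells, and values are medians of duplicate plates.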

NCI-H1651 = system: NCI-H1651
How it was run: as §1

UMC-11 = system: UMC-11
How it was run: as §1

NCI-H1650 = system: NCI-H1650
How it was run: as §1

HCC-78 = system: HCC-78
How it was run: as §1

LCLC-103H = system: LCLC-103H
How it was run: as §1

LK-2 = system: LK-2
How it was run: as §1

LCLC-97TM1 = system: LCLC-97TM1
How it was run: as §1

NCI-H1793 = system: NCI-H1793
How it was run: as §1

COR-L23 = system: COR-L23
How it was run: as §1

A-427 = system: A-427
How it was run: as §1

NCI-H522 = system: NCI-H522
How it was run: as §1

PC-3 [JPC-3] = system: PC-3 [JPC-3]
How it was run: as §1

LOU-NH91 = system: LOU-NH91
How it was run: as §1

LXF-289 = system: LXF-289
How it was run: as §1

NCI-H838 = system: NCI-H838
How it was run: as §1

201T = system: 201T
How it was run: as §1

HARA = system: HARA
How it was run: as §1

NCI-H2347 = system: NCI-H2347
How it was run: as §1

NCI-H2405 = system: NCI-H2405
How it was run: as §1

NCI-H23 = system: NCI-H23
How it was run: as §1

NCI-H520 = system: NCI-H520
How it was run: as §1

RERF-LC-KJ = system: RERF-LC-KJ
How it was run: as §1

Cc1cn(-c2cc(NC(=O)c3ccc(C)c(Nc4nccc(-c5cccnc5)n4)c3)cc(C(F)(F)F)c2)cn1 [Nilotinib] + CC(=O)c1c(C)c2cnc(Nc3ccc(N4CCNCC4)cn3)nc2n(C2CCCC2)c1=O [Palbociclib] (partner 0.5 µM) gave a relative viability (NCI-H647; first compound 0.001 µM) of 0.384, a relative viability (NCI-H647; first compound 0.003162 µM) of 0.382 and a relative viability (NCI-H647; first compound 0.01 µM) of 0.468. It also gave a relative viability (NCI-H647; first compound 0.03162 µM) of 0.266, a relative viability (NCI-H647; first compound 0.1 µM) of 0.26 and a relative viability (NCI-H1651; first compound 0.001 µM) of 0.555. For the same compound, the relative viability (NCI-H1651; first compound 0.003162 µM) was 0.601, the relative viability (NCI-H1651; first compound 0.01 µM) was 0.616 and the relative viability (NCI-H1651; first compound 0.03162 µM) was 0.448. The relative viability (NCI-H1651; first compound 0.1 µM) was 0.562, the relative viability (UMC-11; first compound 0.001 µM) was 0.299 and the relative viability (UMC-11; first compound 0.003162 µM) was 0.296. For the same compound, the relative viability (UMC-11; first compound 0.01 µM) was 0.299, the relative viability (UMC-11; first compound 0.03162 µM) was 0.374 and the relative viability (UMC-11; first compound 0.1 µM) was 0.313. For the same compound, the relative viability (NCI-H1650; first compound 0.001 µM) was 0.329, the relative viability (NCI-H1650; first compound 0.003162 µM) was 0.402 and the relative viability (NCI-H1650; first compound 0.01 µM) was 0.324. It also gave a relative viability (NCI-H1650; first compound 0.03162 µM) of 0.309, a relative viability (NCI-H1650; first compound 0.1 µM) of 0.298 and a relative viability (HCC-78; first compound 0.001 µM) of 0.476. It also gave a relative viability (HCC-78; first compound 0.003162 µM) of 0.509, a relative viability (HCC-78; first compound 0.01 µM) of 0.532 and a relative viability (HCC-78; first compound 0.03162 µM) of 0.468. For the same compound, the relative viability (HCC-78; first compound 0.1 µM) was 0.524, the relative viability (LCLC-103H; first compound 0.001 µM) was 0.425 and the relative viability (LCLC-103H; first compound 0.003162 µM) was 0.403. For the same compound, the relative viability (LCLC-103H; first compound 0.01 µM) was 0.46, the relative viability (LCLC-103H; first compound 0.03162 µM) was 0.489 and the relative viability (LCLC-103H; first compound 0.1 µM) was 0.44. It also gave a relative viability (LK-2; first compound 0.001 µM) of 0.751, a relative viability (LK-2; first compound 0.003162 µM) of 0.475 and a relative viability (LK-2; first compound 0.01 µM) of 0.788. For the same compound, the relative viability (LK-2; first compound 0.03162 µM) was 0.698, the relative viability (LK-2; first compound 0.1 µM) was 0.992 and the relative viability (LCLC-97TM1; first compound 0.001 µM) was 0.222. The relative viability (LCLC-97TM1; first compound 0.003162 µM) was 0.245, the relative viability (LCLC-97TM1; first compound 0.01 µM) was 0.225 and the relative viability (LCLC-97TM1; first compound 0.1 µM) was 0.254. The relative viability (NCI-H1793; first compound 0.001 µM) was 0.332, the relative viability (NCI-H1793; first compound 0.003162 µM) was 0.352 and the relative viability (NCI-H1793; first compound 0.01 µM) was 0.307. The relative viability (NCI-H1793; first compound 0.03162 µM) was 0.281, the relative viability (NCI-H1793; first compound 0.1 µM) was 0.3 and the relative viability (COR-L23; first compound 0.001 µM) was 0.288. The relative viability (COR-L23; first compound 0.003162 µM) was 0.301, the relative viability (COR-L23; first compound 0.01 µM) was 0.317 and the relative viability (COR-L23; first compound 0.03162 µM) was 0.268. The relative viability (COR-L23; first compound 0.1 µM) was 0.223, the relative viability (A-427; first compound 0.001 µM) was 0.51 and the relative viability (A-427; first compound 0.003162 µM) was 0.493. It also gave a relative viability (A-427; first compound 0.01 µM) of 0.524, a relative viability (A-427; first compound 0.03162 µM) of 0.552 and a relative viability (A-427; first compound 0.1 µM) of 0.466. It also gave a relative viability (NCI-H522; first compound 0.03162 µM) of 0.819, a relative viability (NCI-H522; first compound 0.1 µM) of 0.805 and a relative viability (PC-3 [JPC-3]; first compound 0.001 µM) of 0.526. The relative viability (PC-3 [JPC-3]; first compound 0.01 µM) was 0.542, the relative viability (PC-3 [JPC-3]; first compound 0.03162 µM) was 0.566 and the relative viability (PC-3 [JPC-3]; first compound 0.1 µM) was 0.518. For the same compound, the relative viability (LOU-NH91; first compound 0.001 µM) was 0.51, the relative viability (LOU-NH91; first compound 0.003162 µM) was 0.543 and the relative viability (LOU-NH91; first compound 0.01 µM) was 0.48. The relative viability (LOU-NH91; first compound 0.03162 µM) was 0.535, the relative viability (LOU-NH91; first compound 0.1 µM) was 0.586 and the relative viability (LXF-289; first compound 0.001 µM) was 0.673. It also gave a relative viability (LXF-289; first compound 0.003162 µM) of 0.771, a relative viability (LXF-289; first compound 0.01 µM) of 0.666 and a relative viability (LXF-289; first compound 0.03162 µM) of 0.607. For the same compound, the relative viability (LXF-289; first compound 0.1 µM) was 0.577, the relative viability (NCI-H838; first compound 0.001 µM) was 0.215 and the relative viability (NCI-H838; first compound 0.003162 µM) was 0.23. It also gave a relative viability (NCI-H838; first compound 0.01 µM) of 0.188, a relative viability (NCI-H838; first compound 0.03162 µM) of 0.198 and a relative viability (NCI-H838; first compound 0.1 µM) of 0.201. The relative viability (201T; first compound 0.001 µM) was 0.326, the relative viability (201T; first compound 0.003162 µM) was 0.371 and the relative viability (201T; first compound 0.01 µM) was 0.363. It also gave a relative viability (201T; first compound 0.03162 µM) of 0.363, a relative viability (201T; first compound 0.1 µM) of 0.351 and a relative viability (HARA; first compound 0.001 µM) of 0.287. For the same compound, the relative viability (HARA; first compound 0.003162 µM) was 0.219, the relative viability (HARA; first compound 0.01 µM) was 0.246 and the relative viability (HARA; first compound 0.03162 µM) was 0.251. The relative viability (HARA; first compound 0.1 µM) was 0.225, the relative viability (NCI-H2347; first compound 0.001 µM) was 0.452 and the relative viability (NCI-H2347; first compound 0.003162 µM) was 0.419. For the same compound, the relative viability (NCI-H2347; first compound 0.01 µM) was 0.474, the relative viability (NCI-H2347; first compound 0.03162 µM) was 0.43 and the relative viability (NCI-H2347; first compound 0.1 µM) was 0.396. For the same compound, the relative viability (NCI-H2405; first compound 0.001 µM) was 0.493, the relative viability (NCI-H2405; first compound 0.003162 µM) was 0.485 and the relative viability (NCI-H2405; first compound 0.01 µM) was 0.529. For the same compound, the relative viability (NCI-H2405; first compound 0.03162 µM) was 0.467, the relative viability (NCI-H2405; first compound 0.1 µM) was 0.404 and the relative viability (NCI-H23; first compound 0.001 µM) was 0.494. The relative viability (NCI-H23; first compound 0.003162 µM) was 0.52, the relative viability (NCI-H23; first compound 0.01 µM) was 0.512 and the relative viability (NCI-H23; first compound 0.03162 µM) was 0.443. For the same compound, the relative viability (NCI-H23; first compound 0.1 µM) was 0.404, the relative viability (NCI-H520; first compound 0.001 µM) was 0.21 and the relative viability (NCI-H520; first compound 0.003162 µM) was 0.219. It also gave a relative viability (NCI-H520; first compound 0.01 µM) of 0.241, a relative viability (NCI-H520; first compound 0.03162 µM) of 0.218 and a relative viability (NCI-H520; first compound 0.1 µM) of 0.225. It also gave a relative viability (RERF-LC-KJ; first compound 0.001 µM) of 0.965, a relative viability (RERF-LC-KJ; first compound 0.003162 µM) of 1.11 and a relative viability (RERF-LC-KJ; first compound 0.01 µM) of 1.21. It also gave a relative viability (RERF-LC-KJ; first compound 0.03162 µM) of 0.896 and a relative viability (RERF-LC-KJ; first compound 0.1 µM) of 1.03.
